The values that follow are results of earlier work, collected in patent EP4732851A9, “LINKER, ANTIBODY-DRUG CONJUGATE, AND PREPARATION METHOD THEREFOR” (Fudan University, priority 2024, dated 2025).

For this data set the following is noted: background statement; cited from earlier work.

On to PNU-159682, for which the “activity compared to MMDX and doxorubicin” value was 3000 fold.
